{"source": "patent US20100099770A1", "about": "“METHOD FOR TREATING DIABETIC PERIPHERAL NEUROPATHIC PAIN” (SCHWARZ PHARMA AG, priority 2001, published 2010)", "key": {"[1]": {"tested_on": "mechanical allodynia induced by unilateral nerve ligation", "test": "CCI model: mechanical allodynia (electronic Von Frey)", "type": "in vivo, rat", "details": "for Mechanical allodynia, pressure to elicit foot withdrawal, Post-op + Drug: ligated hind paw, ±SEM", "description": "(§1) The effectiveness of harkoseride in reducing spontaneous chronic pain, mechanical allodynia, and thermal hyperalgesia was tested using the chronic constriction injury (CCI) model of peripheral neuropathy, one of the best characterised in vivo animal models used to study chronic pain due to peripheral nerve injury. In this model, loose ligatures are placed around the sciatic nerve, which produces axonal swelling and a partial deafferentation manifested as a significant but incomplete loss of axons in the distal portion of the peripheral nerve. One of the prominent behaviours seen following sciatic nerve ligation is the appearance of hind paw guarding, thought to be an indication of an ongoing spontaneous chronic pain. Support for this idea is derived from reports of increased spinal cord neural activity, and increased spontaneous neuronal discharge in spinothalamic tract neurons and in the ventrobasal thalamus in the absence of overt peripheral stimulation. In addition to the appearance of spontaneous pain behaviours, several abnormalities in stimulus evoked pain occur as a result of CCI, including thermal hyperalgesia and mechanical allodynia. The development of these abnormal stimulus-evoked pains has also been reported as occurring in areas outside the territory of the damaged nerve, areas innervated by uninjured nerves.\n(§2) Behavioural tests for spontaneous pain, thermal hyperalgesia, and mechanical allodynia were conducted to evaluate different components of neuropathic pain. Baseline data for each test was collected prior to any experimental procedure; in addition, all animals were tested for the development of chronic pain behaviours 13-25 days after CCI surgery 1 day prior to the day of vehicle (0.04 ml sterile water/10 g body weight) or drug administration and after vehicle/drug administration. The sequence of the tests was (1) spontaneous pain-related behaviour (2) mechanical allodynia, (3) thermal hyperalgesia in order to minimise the influence of one test on the result of the next. The testing procedures and results are presented separately for each aspect of chronic pain. Either 0 (vehicle, 0.04 ml/10 g body weight), 5, 10, 20 or 40 mg/kg of SPM 927 (n=7-23/group) was administered i.p. 15 minutes before the first behavioural test.\nMechanical sensitivity and allodynia of the ligated rat hind paw was quantified by brisk foot withdrawal in response to normally innocuous mechanical stimuli as described previously. Responsiveness to mechanical stimuli was tested with a calibrated electronic Von Frey pressure algometer connected to an online computerised data collection system. A significant decrease in the post operative compared to baseline pressure (g/mm^2) necessary to elicit a brisk foot withdrawal in response to this mechanical stimulus is interpreted as mechanical allodynia."}, "[2]": {"tested_on": "chronic constriction injury-induced thermal hyperalgesia", "test": "CCI model: thermal hyperalgesia (radiant heat withdrawal latency)", "type": "in vivo, rat", "details": "for Thermal hyperalgesia, withdrawal latency, Post-op + Drug: ligated hind paw, ±SEM", "description": "as §1, §2\nThermal hyperalgesia was assessed by means of withdrawal latency in response to radiant heat applied to the subplantar surface of the ligated rat hind paw. As compared to the baseline latency (s), a significant decrease in the (postoperative) latency of foot withdrawal in response to the thermal stimulus was interpreted as indicating the presence of thermal hyperalgesia following chronic constriction injury."}, "[3]": {"tested_on": "Carrageenan-induced mechanical hyperalgesia", "test": "Carrageenan-induced mechanical hyperalgesia, paw pressure (Randall-Sellito) test", "type": "in vivo, rats", "details": "for nociceptive threshold: inflamed paw, 3 h after carrageenan", "description": "Carrageenan-induced mechanical hyperalgesia in rats was induced by subplantar injection of a 0.1 ml of a 2% carrageenan suspension and measured 3 h afterwards by the paw pressure (Randall-Sellito) test.\nDrugs and experimental design: SPM 927 and GBP were suspended in 1% methylcellulose and administered i.p. at doses of 10 mg/kg, 20 mg/kg and 40 mg/kg. Pre-treatment time was 30 min before pain measurement. One group of animals served as controls and consequently received an injection of solvent (10 ml/kg) and another group of animals received a reference compound (Carrageenan test: 10 mg/kg indomethacin; Formalin test: 10 mg/kg morphine). Each compound was tested in a separate experiment and each experiment included a control and a reference group. 10 rats per group were used in the Carrageenan test and 6 mice per group in the formalin test."}, "[4]": {"tested_on": "neuropathic pain (CHUNG), tactile stimulation", "test": "Neuropathic pain (CHUNG) test, tactile stimulation on lesioned paw", "type": "in vivo, rat", "details": "for FORCE INDUCING PAW-WITHDRAWAL, % change: compared with lesioned control; for FORCE INDUCING PAW-WITHDRAWAL, mean ± s.e.m.: lesioned paw", "excerpt": "The following Tables 8 and 9 show the effects of harkoseride (hereinafter referred tows SPM 927), carbamazepine, levetiracetam, gabapentin and morphine in the neuropathic pain (CHUNG) test in the rat. Eight (8) rats per group were used."}}, "note": "“Also recorded” adds a separate entry of the source. Marks after values point to notes of the source that are not given here."}
{"molecule": "COC[C@@H](NC(C)=O)C(=O)NCc1ccccc1", "note": "[SPM 927, (R)-2-Acetamido-N-benzyl-3-methoxypropionamide]", "values": [{"measurement": "Mechanical allodynia, pressure to elicit foot withdrawal, Post-op + Drug", "setting": "[1]; 5 mg/kg i.p.", "result": "21.8 ± 2.34", "unit": "g/mm^2"}, {"measurement": "Mechanical allodynia, pressure to elicit foot withdrawal, Post-op + Drug", "setting": "[1]; 10 mg/kg i.p.", "result": "29.2 ± 2.85", "unit": "g/mm^2"}, {"measurement": "Mechanical allodynia, pressure to elicit foot withdrawal, Post-op + Drug", "setting": "[1]; 20 mg/kg i.p.", "result": "39.6 ± 3.62", "unit": "g/mm^2"}, {"measurement": "Mechanical allodynia, pressure to elicit foot withdrawal, Post-op + Drug", "setting": "[1]; 40 mg/kg i.p.", "result": "43.0 ± 5.48", "unit": "g/mm^2"}, {"measurement": "effect on intensity of mechanical allodynia (in words)", "setting": "[1]; 5-40 mg/kg i.p.", "result": "dose dependently reduced"}, {"measurement": "Thermal hyperalgesia, withdrawal latency, Post-op + Drug", "setting": "[2]; 5 mg/kg i.p.", "result": "9.2 ± 0.98", "unit": "s"}, {"measurement": "Thermal hyperalgesia, withdrawal latency, Post-op + Drug", "setting": "[2]; 10 mg/kg i.p.", "result": "8.1 ± 0.59", "unit": "s"}, {"measurement": "Thermal hyperalgesia, withdrawal latency, Post-op + Drug", "setting": "[2]; 20 mg/kg i.p.", "result": "9.7 ± 0.96", "unit": "s"}, {"measurement": "Thermal hyperalgesia, withdrawal latency, Post-op + Drug", "setting": "[2]; 40 mg/kg i.p.", "result": "10.2 ± 0.75", "unit": "s"}, {"measurement": "effect on thermal hyperalgesia (in words)", "setting": "[2]; 5-40 mg/kg i.p.", "result": "dose dependently reduced"}, {"measurement": "dose at which the maximum effect on thermal hyperalgesia is seen", "setting": "[2]; i.p.", "result": 20, "unit": "mg/kg"}, {"measurement": "nociceptive threshold", "setting": "[3]; 10 mg/kg i.p. 30 min before measurement", "result": "324 ± 15^b"}, {"measurement": "nociceptive threshold", "setting": "[3]; 20 mg/kg i.p. 30 min before measurement", "result": "426 ± 24^b"}, {"measurement": "nociceptive threshold", "setting": "[3]; 40 mg/kg i.p. 30 min before measurement", "result": "444 ± 13^b"}, {"measurement": "effect on Carrageenan-induced mechanical hyperalgesia (in words)", "setting": "[3]; 10, 20, 40 mg/kg i.p.", "result": "full reversal; also recorded: comparable to that of the reference compound Indomethacin"}, {"measurement": "FORCE INDUCING PAW-WITHDRAWAL, % change", "setting": "[4]; 8 mg/kg i.p. -30 min", "result": "+56% (b)"}, {"measurement": "FORCE INDUCING PAW-WITHDRAWAL, mean ± s.e.m.", "setting": "[4]; 8 mg/kg i.p. -30 min", "result": "27.2 ± 4.9 NS (b) g"}, {"measurement": "FORCE INDUCING PAW-WITHDRAWAL, % change", "setting": "[4]; 16 mg/kg i.p. -30 min", "result": "+40% (b)"}, {"measurement": "FORCE INDUCING PAW-WITHDRAWAL, mean ± s.e.m.", "setting": "[4]; 16 mg/kg i.p. -30 min", "result": "24.4 ± 3.0 NS (b) g"}, {"measurement": "FORCE INDUCING PAW-WITHDRAWAL, % change", "setting": "[4]; 32 mg/kg i.p. -30 min", "result": "+116% (b)"}, {"measurement": "FORCE INDUCING PAW-WITHDRAWAL, mean ± s.e.m.", "setting": "[4]; 32 mg/kg i.p. -30 min", "result": "37.6 ± 6.1 (b) g"}, {"measurement": "comparison of effects in the CHUNG test (in words)", "setting": "[4]; tactile and thermal stimulation, i.p.", "result": "minimum comparable, but usually more potent than the reference compounds"}]}
